Laboratory results published in US10670605B2, “Cysteine reactive probes and uses thereof” (The Scripps Research Institute, priority 2015, dated 2020).

Key:
Assay in all cases: Competitive isoTOP-ABPP in situ (fragment-treated cells)
Format in all cases: cell-based
[1] = molecular target: T1, cysteines in MDA-MB-231 and Ramos cells (Homo sapiens, UniProt Q9UKF6)
T1 sequence (Q9UKF6 1-684): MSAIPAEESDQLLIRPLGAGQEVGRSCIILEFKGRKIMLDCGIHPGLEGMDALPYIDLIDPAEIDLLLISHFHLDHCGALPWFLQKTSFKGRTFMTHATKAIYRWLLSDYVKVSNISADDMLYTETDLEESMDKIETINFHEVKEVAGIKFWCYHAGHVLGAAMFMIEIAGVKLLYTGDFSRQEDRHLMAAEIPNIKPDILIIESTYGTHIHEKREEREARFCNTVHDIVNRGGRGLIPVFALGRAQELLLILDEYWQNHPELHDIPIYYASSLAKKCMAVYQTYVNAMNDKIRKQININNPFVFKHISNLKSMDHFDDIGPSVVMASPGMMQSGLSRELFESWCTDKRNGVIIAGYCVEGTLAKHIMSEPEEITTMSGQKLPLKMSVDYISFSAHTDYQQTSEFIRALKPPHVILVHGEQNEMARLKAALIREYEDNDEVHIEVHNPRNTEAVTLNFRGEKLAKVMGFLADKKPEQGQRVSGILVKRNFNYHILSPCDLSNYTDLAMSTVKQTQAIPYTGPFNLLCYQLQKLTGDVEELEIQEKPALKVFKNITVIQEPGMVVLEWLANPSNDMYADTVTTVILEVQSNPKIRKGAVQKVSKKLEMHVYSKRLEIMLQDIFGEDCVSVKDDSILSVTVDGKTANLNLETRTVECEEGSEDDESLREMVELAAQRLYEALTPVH

[2] = molecular target: T2, cysteines in MDA-MB-231 and Ramos cells (Homo sapiens, UniProt Q09161)
T2 sequence (Q09161 1-790): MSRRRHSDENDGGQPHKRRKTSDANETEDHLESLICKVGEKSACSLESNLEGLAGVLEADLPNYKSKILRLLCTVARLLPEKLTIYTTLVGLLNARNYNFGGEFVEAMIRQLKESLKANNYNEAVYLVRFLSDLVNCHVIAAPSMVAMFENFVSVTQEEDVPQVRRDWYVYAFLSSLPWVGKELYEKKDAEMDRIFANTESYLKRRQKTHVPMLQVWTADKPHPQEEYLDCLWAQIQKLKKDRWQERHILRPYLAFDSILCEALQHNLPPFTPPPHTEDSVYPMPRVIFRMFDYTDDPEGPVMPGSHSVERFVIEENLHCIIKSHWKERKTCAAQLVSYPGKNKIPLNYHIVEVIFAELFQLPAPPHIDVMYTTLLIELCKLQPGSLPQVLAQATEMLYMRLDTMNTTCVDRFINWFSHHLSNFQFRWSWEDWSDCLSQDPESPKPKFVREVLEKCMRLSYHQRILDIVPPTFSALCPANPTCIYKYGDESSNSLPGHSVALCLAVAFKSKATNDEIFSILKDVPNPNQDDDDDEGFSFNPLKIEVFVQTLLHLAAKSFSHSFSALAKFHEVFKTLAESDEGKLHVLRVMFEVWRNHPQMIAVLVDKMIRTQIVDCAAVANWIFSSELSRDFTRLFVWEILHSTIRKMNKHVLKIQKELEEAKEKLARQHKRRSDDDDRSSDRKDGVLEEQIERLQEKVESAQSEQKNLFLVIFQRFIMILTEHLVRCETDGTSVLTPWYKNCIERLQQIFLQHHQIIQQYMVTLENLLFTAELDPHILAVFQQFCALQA

[3] = molecular target: T3, cysteines in MDA-MB-231 and Ramos cells (Homo sapiens, UniProt Q9Y3D0)
T3 sequence (Q9Y3D0 1-163): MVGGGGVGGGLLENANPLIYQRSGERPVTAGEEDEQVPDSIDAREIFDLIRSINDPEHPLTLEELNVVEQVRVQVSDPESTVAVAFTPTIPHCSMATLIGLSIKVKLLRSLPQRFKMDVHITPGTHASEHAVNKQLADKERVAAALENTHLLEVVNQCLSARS

[4] = molecular target: cysteines in MDA-MB-231 and Ramos cells (Homo sapiens, UniProt Q8TAQ2)
Chain of cysteines in MDA-MB-231 and Ramos cells (Homo sapiens, UniProt Q8TAQ2) (Q8TAQ2 whole entry): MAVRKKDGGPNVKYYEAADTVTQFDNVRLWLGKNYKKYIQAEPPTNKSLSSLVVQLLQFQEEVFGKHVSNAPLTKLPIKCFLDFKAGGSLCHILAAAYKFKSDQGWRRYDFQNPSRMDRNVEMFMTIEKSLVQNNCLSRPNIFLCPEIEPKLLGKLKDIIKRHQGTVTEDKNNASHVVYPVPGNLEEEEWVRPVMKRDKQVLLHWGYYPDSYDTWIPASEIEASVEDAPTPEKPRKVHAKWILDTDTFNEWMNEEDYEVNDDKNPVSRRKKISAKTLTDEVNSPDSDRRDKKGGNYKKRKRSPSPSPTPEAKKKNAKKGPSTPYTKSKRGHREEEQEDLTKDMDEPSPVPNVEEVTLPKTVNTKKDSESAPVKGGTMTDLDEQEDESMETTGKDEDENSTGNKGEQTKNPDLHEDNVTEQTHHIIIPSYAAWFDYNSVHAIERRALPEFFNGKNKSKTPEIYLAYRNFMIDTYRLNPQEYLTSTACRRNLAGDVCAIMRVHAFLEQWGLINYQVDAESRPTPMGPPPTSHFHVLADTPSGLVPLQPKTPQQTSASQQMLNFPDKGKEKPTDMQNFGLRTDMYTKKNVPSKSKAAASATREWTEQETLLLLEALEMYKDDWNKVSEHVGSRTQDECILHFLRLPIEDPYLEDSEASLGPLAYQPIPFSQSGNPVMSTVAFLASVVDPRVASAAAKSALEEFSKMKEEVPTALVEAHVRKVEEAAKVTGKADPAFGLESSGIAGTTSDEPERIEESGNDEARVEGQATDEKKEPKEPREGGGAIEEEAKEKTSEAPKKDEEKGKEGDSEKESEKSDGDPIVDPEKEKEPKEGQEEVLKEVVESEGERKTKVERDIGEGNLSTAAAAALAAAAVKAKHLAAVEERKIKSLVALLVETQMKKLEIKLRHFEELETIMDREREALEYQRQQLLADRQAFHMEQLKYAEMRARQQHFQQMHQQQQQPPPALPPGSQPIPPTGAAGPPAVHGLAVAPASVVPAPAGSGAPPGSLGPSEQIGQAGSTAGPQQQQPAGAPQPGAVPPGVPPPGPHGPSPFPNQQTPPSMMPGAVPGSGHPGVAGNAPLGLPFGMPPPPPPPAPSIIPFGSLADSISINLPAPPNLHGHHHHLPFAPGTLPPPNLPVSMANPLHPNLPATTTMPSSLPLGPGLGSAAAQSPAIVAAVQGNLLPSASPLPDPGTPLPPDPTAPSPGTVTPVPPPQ

[5] = molecular target: T4, cysteines in MDA-MB-231 and Ramos cells (Homo sapiens, UniProt P50570)
T4 sequence (P50570 1-870): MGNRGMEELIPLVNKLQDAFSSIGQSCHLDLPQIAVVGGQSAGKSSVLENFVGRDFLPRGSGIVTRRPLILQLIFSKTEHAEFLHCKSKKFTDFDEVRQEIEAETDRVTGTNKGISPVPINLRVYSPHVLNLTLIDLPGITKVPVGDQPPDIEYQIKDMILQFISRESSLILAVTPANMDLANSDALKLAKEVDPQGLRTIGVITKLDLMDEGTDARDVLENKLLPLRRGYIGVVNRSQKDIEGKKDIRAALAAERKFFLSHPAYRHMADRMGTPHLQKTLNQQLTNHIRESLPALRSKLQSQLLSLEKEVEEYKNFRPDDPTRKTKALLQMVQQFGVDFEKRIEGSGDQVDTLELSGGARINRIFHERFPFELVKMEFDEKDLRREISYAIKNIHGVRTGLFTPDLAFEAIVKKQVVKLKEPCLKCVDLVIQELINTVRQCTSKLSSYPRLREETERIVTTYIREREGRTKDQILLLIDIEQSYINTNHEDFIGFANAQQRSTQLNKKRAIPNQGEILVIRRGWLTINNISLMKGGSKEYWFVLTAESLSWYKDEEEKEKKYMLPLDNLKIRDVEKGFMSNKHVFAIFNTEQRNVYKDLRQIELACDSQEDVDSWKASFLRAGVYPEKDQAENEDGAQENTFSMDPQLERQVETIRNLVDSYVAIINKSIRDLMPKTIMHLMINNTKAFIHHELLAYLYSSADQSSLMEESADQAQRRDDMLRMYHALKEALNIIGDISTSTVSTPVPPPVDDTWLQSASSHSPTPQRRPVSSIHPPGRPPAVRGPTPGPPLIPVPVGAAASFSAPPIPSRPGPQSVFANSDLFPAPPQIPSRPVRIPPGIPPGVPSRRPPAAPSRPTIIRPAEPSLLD

[6] = molecular target: cysteines in MDA-MB-231 and Ramos cells (Homo sapiens, UniProt Q9BUH6)
Chain of cysteines in MDA-MB-231 and Ramos cells (Homo sapiens, UniProt Q9BUH6) (Q9BUH6 whole entry): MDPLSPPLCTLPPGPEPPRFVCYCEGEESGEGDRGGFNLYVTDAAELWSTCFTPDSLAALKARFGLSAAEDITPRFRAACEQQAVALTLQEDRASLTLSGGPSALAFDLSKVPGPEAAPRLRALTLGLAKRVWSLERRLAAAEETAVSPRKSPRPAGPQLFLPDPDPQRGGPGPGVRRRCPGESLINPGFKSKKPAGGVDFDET

| isoTOP-ABPP ratio Q9UKF6_C498 ([1]; 200 μM, insitu, 231) | isoTOP-ABPP ratio Q09161_C44 ([2]; 200 μM, insitu, 231) | isoTOP-ABPP ratio Q9Y3D0_C93 ([3]; 200 μM, insitu, 231) | isoTOP-ABPP ratio Q9BUH6_C180 ([6]; 200 μM, insitu, 231) | isoTOP-ABPP ratio P50570_C27 ([5]; 200 μM, insitu, 231) | isoTOP-ABPP ratio Q8TAQ2_C145 ([4]; 200 μM, insitu, 231) | SMILES | further results |
| --- | --- | --- | --- | --- | --- | --- | --- |
| – | – | – | – | – | – | COc1ccc2c(c1)CCCN2C(=O)CCl [compound 2] | isoTOP-ABPP reactivity Q9UKF6_C498 CPSF3 ([1]; 200 μM, insitu, 231): 6.2; isoTOP-ABPP reactivity Q09161_C44 NCBP1 ([2]; 200 μM, insitu, 231): 2.1; isoTOP-ABPP reactivity Q9Y3D0_C93 FAM96B ([3]; 200 μM, insitu, 231): 20.0; isoTOP-ABPP reactivity Q8TAQ2_C145 SMARCC2 ([4]; 200 μM, insitu, 231): 4.6; isoTOP-ABPP reactivity P50570_C27 DNM2 ([5]; 200 μM, insitu, 231): 4.6 |
| – | – | – | – | – | – | COc1ccc(C2CC(c3cccs3)=NN2C(=O)CCl)cc1 (stereo not drawn) [compound 4] | isoTOP-ABPP reactivity Q9UKF6_C498 CPSF3 ([1]; 100 μM in situ 231): 3.5; isoTOP-ABPP reactivity Q09161_C44 NCBP1 ([2]; 100 μM in situ 231): 1.8; isoTOP-ABPP reactivity Q9Y3D0_C93 FAM96B ([3]; 100 μM in situ 231): 20.0; isoTOP-ABPP reactivity Q9BUH6_C180 C9orf142 ([6]; 100 μM in situ 231): 1.2; isoTOP-ABPP reactivity Q8TAQ2_C145 SMARCC2 ([4]; 100 μM in situ 231): 3.1; isoTOP-ABPP reactivity P50570_C27 DNM2 ([5]; 100 μM in situ 231): 2.2 |
| – | – | – | – | – | – | COc1cc2c(cc1OC)CN(C(=O)CCl)CC2 [compound 8] | isoTOP-ABPP reactivity Q9UKF6_C498 CPSF3 ([1]; 200 μM, insitu, 231): 20.0; isoTOP-ABPP reactivity Q09161_C44 NCBP1 ([2]; 200 μM, insitu, 231): 2.0; isoTOP-ABPP reactivity Q9BUH6_C180 C9orf142 ([6]; 200 μM, insitu, 231): 6.6 |
| – | – | – | – | – | – | O=C(CCl)N1CCC(Cc2ccccc2)CC1 [compound 9] | isoTOP-ABPP reactivity Q9BUH6_C180 C9orf142 ([6]; 200 μM, insitu, 231): 2.8 |
| 20.0 | 12.4 | 2.1 | 3.8 | 3.1 | – | O=C(CCl)N1CCN(S(=O)(=O)c2ccccc2F)CC1 [compound 10] | isoTOP-ABPP ratio Q9UKF6_C498 ([1]; 200 μM, insitu, ramos): 2.8; isoTOP-ABPP ratio Q8TAQ2_C145 ([4]; 200 μM, insitu, ramos): 20.0 |
| – | – | – | – | – | – | Cn1cc(S(=O)(=O)N2CCOCC2)cc1C(=O)NC(=O)CCl [compound 11] | isoTOP-ABPP ratio Q9UKF6_C498 ([1]; 100 μM in situ 231): 1.3; isoTOP-ABPP ratio Q09161_C44 ([2]; 100 μM in situ 231): 1.1; isoTOP-ABPP ratio Q9Y3D0_C93 ([3]; 100 μM in situ 231): 0.9; isoTOP-ABPP ratio Q8TAQ2_C145 ([4]; 100 μM in situ 231): 7.6; isoTOP-ABPP ratio P50570_C27 ([5]; 100 μM in situ 231): 0.7 |
| 4.1 | 4.7 | – | 1.4 | 0.7 | – | O=C(CCl)NC(=O)NC12CC3CC(CC(C3)C1)C2 [compound 12] | – |
| – | 1.0 | – | 1.1 | – | 1.1 | O=C(CCl)NCCc1c[nH]c2ccccc12 [compound 13] | isoTOP-ABPP ratio Q9UKF6_C498 ([1]; 200 μM, insitu, ramos): 1.4; isoTOP-ABPP ratio Q9Y3D0_C93 ([3]; 200 μM, insitu, ramos): 1.4; isoTOP-ABPP ratio P50570_C27 ([5]; 200 μM, insitu, ramos): 1.0 |
| 1.4 | 1.3 | 0.5 | – | 0.8 | 1.6 | O=C(CCl)NC12CC3CC(CC(C3)C1)C2 [compound 21] | – |
| 1.5 | 0.8 | 0.7 | – | 0.5 | 2.1 | CC(C)CCOCCNC(=O)CCl [compound 27] | – |
| – | – | 0.8 | 1.1 | – | 0.9 | COc1ccccc1OCCNC(=O)CCl [compound 28] | – |
| – | – | – | – | – | – | O=C(CCl)N1CCN(CC(=O)N2CCOCC2)CC1 [compound 29] | isoTOP-ABPP ratio Q9UKF6_C498 ([1]; 200 μM, insitu, ramos): 2.3; isoTOP-ABPP ratio Q09161_C44 ([2]; 200 μM, insitu, ramos): 1.1; isoTOP-ABPP ratio Q9Y3D0_C93 ([3]; 200 μM, insitu, ramos): 1.0; isoTOP-ABPP ratio Q9BUH6_C180 ([6]; 200 μM, insitu, ramos): 1.5; isoTOP-ABPP ratio Q8TAQ2_C145 ([4]; 200 μM, insitu, ramos): 2.7; isoTOP-ABPP ratio P50570_C27 ([5]; 200 μM, insitu, ramos): 1.0 |
| – | 0.6 | – | 0.8 | – | 0.8 | C=CC(=O)N(Cc1cccnc1)c1cc(C(F)(F)F)cc(C(F)(F)F)c1 [compound 31] | isoTOP-ABPP ratio Q8TAQ2_C145 ([4]; 200 μM, insitu, ramos): 1.1 |
| – | 1.2 | 2.4 | 1.4 | 0.9 | 1.3 | C=CC(=O)Nc1cc(F)c(N2CCN(C(=O)OC(C)(C)C)CC2)c(F)c1 [compound 38] | – |
| 1.0 | 0.8 | 0.6 | 0.6 | 0.5 | 1.2 | Cc1ccc(C=C(C#N)C(=O)NCCN2CCOCC2)cc1 [compound 41] | – |
| 20.0 | 2.5 | 20.0 | 5.5 | 15.4 | 2.9 | CC1CCc2ccccc2N1C(=O)CCl (stereo not drawn) [compound 45] | – |
| – | 1.2 | 20.0 | – | 1.1 | 1.2 | O=C(CCl)Nc1cccc2ncccc12 [compound 51] | – |
